Results published in US11214564B2, “Compounds with thymine skeleton for use in medicine” (TECHNISCHE UNIVERSITÄT DRESDEN, priority 2019, dated 2022).

Tests used:
[1] = tested on: RPMI 8226 multiple myeloma cells; assay: Chemoresistance assay, RPMI 8226 cells with Bortezomib; type: cell-based, human; details: for resensitization of chemoresistant RPMI 8226 multiple myeloma cells to Bortezomib (relative cell number): rising Bortezomib 0.5-1 nM or 0.75-1.3 nM, BVDU 30 μM, compounds 1 μM or lower, FIG. 1a
Text: (§1) In a chemoresistance assay, a HSP27 dependent resistance to a cytostatic drug is induced in cultured cells by slowly increasing the dose of the cytostatic over several cell passages. This approach is valid for multiple cell types and cytostatic drugs and allowed us to test compounds according to the invention for their ability to inhibit HSP27 and reestablish susceptibility of the resistant cells to the cancer drug.
RPM-8226 cells, a human multiple myeloma cell line, were obtained from DSMZ (Leibniz Institute DSMZ-German Collection of Microorganisms and Cell Cultures). Cells were grown in RPMI 1640 medium (FG 1235; Biochrom AG, Berlin, Germany) supplemented with 10% (v/v) heat-inactivated fetal bovine serum in a humidified atmosphere containing 5% CO2 at 37° C. Logarithmically growing cells were seeded at a density of 100,000 cells/ml and incubated with Bortezomib (Velcade) in combination with or without test compounds. Cells were periodically counted using C-Chip Neubauer-improved counting chambers (Peqlab) and serially passaged. Cells were maintained below 1,000,000 cells/ml and typically passaged when the cell count reached 800,000 cells/ml. The starting dose of Bortezomib was typically 0.1 ng/ml and the concentration of Bortezomib was increased with each passage, e.g.: 1st passage, 0.1 ng/ml Bortezomib, 2nd passage 0.2 ng/ml Bortezomib, 3rd passage 0.3 ng/ml Bortezomib, etc.
Over 3-4 passages with increasing concentration of Bortezomib, cells begin to show resistance and finally grow at the same rate as untreated cells.
(§2) The addition of HSP27 inhibitors prevents development of chemoresistance and reestablishes the killing effect of Bortezomib. Cell numbers are determined at the end of the final passage to compare their growth rates.
(§3) As a reference compound, BVDU was tested at a concentration of 30 μM as previously described (Heinrich et al. (2016)). The compounds according to the invention were tested at a concentration of 1 μM or lower (see below). Test compounds were added at the start of the experiment and again after each passage and their concentrations remained unchanged throughout. […] The appropriate non-toxic dose of the test compound was determined in a dose-finding experiment beforehand.
FIG. 1a: Results of chemoresistance assay showing the resensitization of chemoresistant RPMI 8226 multiple myeloma cells to Bortezomib after treatment with test compounds. RPMI-8226 cells (100,000) were seeded and cultured in the presence of rising concentrations of Bortezomib (0.5-1 nM or 0.75-1.3 nM) and HSP27 inhibitor, and passaged every 4-7 days. Cell counts were taken after the last passage at the highest concentration of Bortezomib and relative cell number determined. Test compounds were BVDU, and Compound 12 and Compound 4, according to the invention.

[2] = tested on: 2950-K9 mouse colon carcinoma cells; assay: Chemoresistance assay, 2950-K9 cells with 5-Fluorouracil; type: cell-based; details: rising 5-FU 12-20 nM; BVDU 30 μM, compounds 1 μM or lower; FIG. 1b
Text: as §1, §2, §3
FIG. 1b: Results of chemoresistance assay showing the resensitization of chemoresistant 2950-K9 mouse colon carcinoma cells to the drug 5-Fluorouracil (5-FU) after treatment with test compounds. 2950-K9 cells (100,000) were seeded and cultured in the presence of rising concentrations of 5-FU (12-20 nM) and HSP27 inhibitor, and passaged every 4-7 days. Cell counts were taken after the last passage at the highest concentration of 5-FU and relative cell number determined. Test compounds were BVDU, and Compound 5, Compound 12 and Compound 4, according to the invention.

HSP27 = HSP27 (Homo sapiens, UniProt P04792); assay: Aggregation assay: HSP27 chaperone activity on heat-induced aggregation of citrate synthase; type: biochemical; details: compound 10 μM; 1.44 μM CS, 481 nM HSP27, 43° C., 500 nm
Procedure: To test how small molecules affect the chaperone activity of HSP27, misfolding and aggregation of citrate synthase (CS), a well-known in vitro client protein of HSP27, was measured. Citrate synthase misfolds and aggregates when exposed to heat shock at 43° C. This heat denaturation is prevented or delayed in the presence of HSP27 (CS+HSP27) (Jakob et al. (1993)). […] The samples were incubated at 43° C. and the aggregation behavior of CS was monitored in a spectrometer (PerkinElmer LS55) at a wavelength of 500 nm. Substances inhibiting HSP27's chaperone activity lead to continued denaturation of the client protein and its aggregation in solution. This inhibition correlates with the strength of the interaction between HSP27 and the test substance, which is related to its binding efficiency.
In the reference experiment BVDU (CS+HSP27+BVDU) was tested at a concentration of 750 μM as previously described (Heinrich et al. (2016)).
The compounds according to the invention were tested at a concentration of 10 μM.

HSP27, sequence (P04792 whole entry): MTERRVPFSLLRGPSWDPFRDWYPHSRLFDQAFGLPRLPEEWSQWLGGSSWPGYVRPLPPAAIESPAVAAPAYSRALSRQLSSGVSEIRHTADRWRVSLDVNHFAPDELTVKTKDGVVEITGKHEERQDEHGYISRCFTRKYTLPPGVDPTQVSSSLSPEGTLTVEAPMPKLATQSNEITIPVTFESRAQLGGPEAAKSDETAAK

Row | Structure (SMILES) | influence on cell growth of compound alone (control without cytostatic) ([1]; cells treated with only BVDU (30 μM) or test compound (1 μM or lower)) | resensitization of chemoresistant RPMI 8226 multiple myeloma cells to Bortezomib (relative cell number) [1] | resensitization of chemoresistant 2950-K9 mouse colon carcinoma cells to 5-Fluorouracil (relative cell number) [2] | aggregation value related to the value from reference experiment (CS + HSP27 + BVDU), which was set at 1.0 (HSP27)
1 | O=c1[nH]c(=O)n([C@H]2C[C@H](O)[C@@H](CO)O2)cc1/C=C/Br [BVDU, (E)-5-(2-bromovinyl)-2′-deoxyuridine, reference compound] | did not influence cell growth | resensitization | resensitization | –
2 | O=C(Cc1cccc(-c2ccc(Cl)c(Cl)c2)c1)Nc1ccc(-n2ccc(=O)[nH]c2=O)cc1 [Compound 4, 2-(3′,4′-dichloro-[1,1′-biphenyl]-3-yl)-N-(4-(2,4-dioxo-3,4-dihydro-pyrimidin-1(2H)-yl)phenyl) acetamide] | – | resensitization | resensitization | 1.39
3 | O=C(Cc1cccc(-c2ccc(Cl)cc2Cl)c1)Nc1ccc(-n2ccc(=O)[nH]c2=O)cc1 [Compound 5, 2-(2′,4′-dichloro-[1,1′-biphenyl]-3-yl)-N-(4-(2,4-dioxo-3,4-dihydro-pyrimidin-1(2H)-yl)phenyl) acetamide] | – | – | resensitization | 1.39
4 | O=C(Cc1cccc(-c2ccc(Cl)c(Cl)c2)c1)Nc1ccc(-n2cc(F)c(=O)[nH]c2=O)cc1 [Compound 12, 2-(3′,4′-dichloro-[1,1′-biphenyl]-3-yl)-N-(4-(5-fluoro-2,4-dioxo-3,4-dihydro-pyrimidin-1(2H)-yl)phenyl) acetamide] | – | resensitization | resensitization | 1.57
5 | O=c1ccn(-c2ccc(-n3cc(-c4ccc(Cl)c(Cl)c4)nn3)cc2)c(=O)[nH]1 [Compound 56, 1-(4-(4-(3,4-Dichlorophenyl)-1H-1,2,3-triazol-1-yl)phenyl)pyrimidine-2,4(1H,3H)-dione] | – | – | – | 1.39
